Data set [1] addresses T1, NUPR1 (Homo sapiens, UniProt O60356).
T1 construct: made in house; host or cells: E. coli
T1 sequence (O60356 1-82): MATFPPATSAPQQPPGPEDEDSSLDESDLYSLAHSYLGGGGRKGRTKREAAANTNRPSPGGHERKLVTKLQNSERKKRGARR
Nature of the data set: 2D 1H-15N HSQC NMR cross-peak broadening of NUPR1 upon compound addition. Conditions: NUPR1 100 μM : compound 400 μM, 25 °C, pH 4.5. The data set is classed as binding. The method, then:
The NMR data were acquired at 25 °C, pH 4.5 (acetate buffer), on a Bruker Avance DRX-500 spectrometer equipped with a triple-resonance probe and z-gradients. All spectra were referenced to external TSP.
The 2D ^1H-^15N heteronuclear single-quantum coherence (HSQC) spectra[42] were acquired in the phase sensitive mode for isolated ^15N-labelled NUPR1 (100 μM) or ^15N-labelled NUPR1 (100 μM) in the presence of the corresponding compound (400 μM). […] Frequency discrimination in the indirect dimensions was achieved by using the echo/antiecho-TPPI method. […] The carrier of the ^1H dimension was set at 8.00 ppm, and that of ^15N at 120 ppm. The spectral widths used were 10 and 35 ppm in the ^1H and ^15N dimensions, respectively. Water signal was suppressed with the WATERGATE sequence. Data were zero-filled to double the number of original points in both dimensions, apodized with shifted squared sine-bell functions in the two dimensions and Fourier transformed with the program TopSpin 1.2. Assignments were taken from those previously reported. The intensity of the signals from each row in the HSQC spectra was measured by using TopSpin 2.1 taking into account, as an internal reference, the intensity of the last residue of NUPR1. Only differences in intensity of a particular residue between spectra of the complex (NUPR1:Compound) and that of isolated NUPR1 larger than 10%, were considered significant.

The target in data set [2] is T1, NUPR1. Nature of the data set: Isothermal titration calorimetry (ITC) of compound binding to NUPR1. To be noted: 25 °C, 20 mM sodium phosphate pH 7, relative error is 20%. Here is the method: Ligand binding to NUPR1 was determined with a high sensitivity isothermal titration calorimeter Auto-iTC200 (MicroCal–Malvern Instruments, Malvern UK). Protein samples and reference solutions were properly degassed and carefully loaded into the calorimetric cells to avoid bubble formation during stirring. Experiments were performed with freshly prepared buffer-exchanged protein solutions, at 25 °C in 20 mM sodium phosphate pH 7. NUPR1 20 μM solution in the calorimetric cell was titrated with 300–400 μM compound solution. A sequence of 19 injections of 2 μL volume was programmed with a stirring speed of 1000 rpm. The heat evolved after each ligand injection was obtained from the integral of the calorimetric signal. The heat due to the binding reaction was obtained as the difference between the reaction heat and the corresponding heat of dilution, the latter estimated as a constant value throughout the experiment, and included as an adjustable parameter in the analysis. Control experiments (compound injected into buffer) were performed under the same experimental conditions. The association constant (Ka) and the enthalpy change (ΔH) of the binding reaction were obtained through non-linear regression of experimental data to a model for a protein with a single ligand binding site. Experiments were performed in replicates and data were analyzed using in-house developed software implemented in Origin 7 (OriginLab, Northampton, MA).
(ITC needs no label: the signal is the heat of the interaction.)

Data set [3] has as its system MiaPaCa-2 cells. Nature of the data set: Colony formation in soft agar (clonogenicity). The class given is cell-based, human. To be noted: 10 μM compound. The method, then: Colony formation assay was performed in order to measure the in vitro survival ability of a single cell to grow into a colony in an anchorage-independent growth environment. Briefly, after treating MiaPaCa-2 cells with either the compounds or DMSO (as control) for 24 and 48 h, they were seeded in DMEM complete media at a density of 7 × 10^3 cells in 6-well plates containing a top layer of 0.7% agar and a bottom layer of 1% agar. Plates were incubated at 37 °C for 3 to 4 weeks and then stained with 0.2% crystal violet. […] Comparisons of treatment outcome were tested for statistical significance by using the t-test.

Data set [4] has as its system MiaPaCa-2 cells. Nature of the data set: Chemograms of Gemcitabine or Oxaliplatin with or without Compound-15.
Description: (§1) Cells (10000 cells/well) were plated in 96-well plates with DMEM. Twenty-four hours later, the media were supplemented with 10 μM of Compound and were incubated for another additional six days. Each experiment was performed in duplicate and repeated at least three times. Cell viability was estimated after addition of the CellTiter-Blue viability reagent (Promega, Madrid, Spain) for 1 h according to the protocol provided by the supplier. Cell viability was measured on day 6 and normalized regarding untreated cells rates. Statistical significance was assumed at a p-value lower than 0.05.
Data set [5] has as its system MiaPaCa-2 cells. Nature of the data set: Cell viability assay (CellTiter-Blue), MiaPaCa-2. Conditions: MiaPaCa-2, 10 μM of each compound, 6 days, normalized to untreated cells. (The colour change of resazurin is a common sign of viable cells or microbes.)
Description: as §1

Counter-ions that a name gives are not always drawn. Like-named read-outs stand apart in the source and are kept apart here.

The term Kd denotes the equilibrium constant for the complex coming apart. Read a high Kd as a looser complex. `CC(C)NCC(O)c1ccc(O)c(O)c1.O=C(O)C(O)C(O)C(=O)O` (single isomer, unassigned; (+)) [Compound-9, (+)-Isoproterenol (+)-bitartrate salt]: at NUPR1 [1], the “Residues of NUPR1 with NMR-cross-peak broadening affected by binding” value (shortened to “Residues of NUPR1”) is “Ser9; Ala10; Leu29; Ala33; Gly38; Thr68”. For the same compound, on NUPR1 [2], binding was characterised by a dissociation constant (Kd) of 4 µM.
For `CC(C)NCC(O)c1ccc(O)c(O)c1.Cl` (single isomer, unassigned; (-)) [compound 5, (-)-Isoproterenol hydrochloride], in that order: “Thr68” and 3.9 µM.
In the case of `CC(C)(C)c1ccc(C(O)CCCN2CCC(C(O)(c3ccccc3)c3ccccc3)CC2)cc1` (stereo not shown) [Compound-1, Terfenadine], the affinity at NUPR1 [2], expressed as Kd, was 5 µM.
For the compound `OCCN1CCN(CCCN2c3ccccc3Sc3ccc(C(F)(F)F)cc32)CC1` [Compound-2, Fluphenazine dihydrochloride], on NUPR1 [1], the “Residues of NUPR1” value is recorded as “Thr68”. For the same compound, the Kd at NUPR1 [2] is 2 µM.
On the same counts, the results for `Fc1ccc(C(c2ccc(F)cc2)N2CCN(C/C=C/c3ccccc3)CC2)cc1` [Compound-6, Flunarizine dihydrochloride] are “Ala33; Thr68” and 3.1 µM.
For `CCCCN(CCCC)CCC(O)c1cc2c(Cl)cc(Cl)cc2c2cc(C(F)(F)F)ccc12` (stereo not shown) [Compound-7, Halofantrine hydrochloride], in that order: “Thr68” and 3.3 µM.
As for `C[C@H](N)[C@H](O)c1ccc(O)c(O)c1` [Compound-8, Levonordefrin], at NUPR1 [1], the “Residues of NUPR1” value is on record as “Ala33; Thr68”. Further, binding on NUPR1 [2] was characterised by a dissociation constant (Kd) of 1.5 µM.
Regarding `CC(C)N1CCN(c2ccc(OCC3COC(Cn4cncn4)(c4ccc(Cl)cc4Cl)O3)cc2)CC1` (stereo not shown) [Compound-11, Terconazole], the “Residues of NUPR1” value on NUPR1 [1] was “Thr68”.
On to `CC(C)(C)CC(C)(C)c1ccc(OCCOCC[N+](C)(C)Cc2ccccc2)cc1` [Compound-13, Benzethonium chloride], for which the Colony formation result in the data set with MiaPaCa-2 cells [3] was “completely inhibited colony formation”.
Broadly, the viability is the share of living cells, or the viability signal relative to a control. Take `Nc1ccn([C@@H]2O[C@H](CO)[C@@H](O)C2(F)F)c(=O)n1` [Gemcitabine]: in the data set with MiaPaCa-2 cells [4] (Homo sapiens, MIA PaCa-2, 72 h, read-out: IC50 (concentration reducing cell viability to one half)), the IC50 was determined as 0.06 µM. Also, the viability at 0.06 µM with MiaPaCa-2 cells [4] (Homo sapiens, MIA PaCa-2, read-out: Cell viability) amounted to 41 ± 0.4%.
In the case of `O=C1[O][Pt]2([NH][C@@H]3CCCC[C@H]3[NH]2)[O]C1=O` [Oxaliplatin], the values for the Cell viability with MiaPaCa-2 cells [4] (4 μM Oxaliplatin alone) and in the data set on MiaPaCa-2 cells [5] were 53 ± 0.4% and 10 ± 2%, respectively. Besides, the IC50 with MiaPaCa-2 cells [4] (drug alone, MiaPaCa-2, 3 days) was 4 µM.
On to `O=C(O)/C=C/c1ccc(O)c(O)c1` [compound 3, Caffeic acid], for which the “Residues of NUPR1” value at NUPR1 [1] is reported as “Ala33; Thr68”. The same compound had a Kd at NUPR1 [2] of 2 µM.
On the same counts, the results for `COC(=O)[C@H]1[C@H]2C[C@@H]3c4[nH]c5cc(OC)ccc5c4CCN3C[C@H]2C[C@@H](OC(=O)c2cc(OC)c(OC)c(OC)c2)[C@@H]1OC` [compound 4, Reserpine] are “Thr68” and 3.2 µM.
For `CN(C)CCC(c1ccccc1)c1ccccn1` (stereo not shown) [compound 10, Pheniramine maleate], in that order: “Ser9; His62; Thr68” and 4.3 µM.
On the same counts, the results for `CN(C)[C@@H]1C(O)=C(C(N)=O)C(=O)[C@@]2(O)C(O)=C3C(=O)c4c(O)ccc(Cl)c4[C@@](C)(O)[C@H]3C[C@@H]12` [compound 14, Chlortetracycline hydrochloride] are “Ala33; Thr68” and 1.5 µM.
